Tested on: inflammation/edema induced by carrageenan-injection into the footpads of Sprague Dawley (SD) rats
Test: Carrageenan-induced inflammation rat paw test (Example 3)
Conditions: at necropsy about 24 h post-carrageenan, N=10, SE in line below
Method: Efficacy evaluation was based on gait analysis, von Frey absolute thresholds and ankle caliper differentials recorded over 24 h after initial carrageenan injection, and paw differential weights following euthanasia of the test subjects.
Experimental Design. Male Sprague Dawley (Envigo RMS, Inc., Indianapolis) were weighed on Day 1 (mean 285 g) and randomized by body weight into treatment groups. On Day 0-1, animals in Groups 3-11 were dosed with topical compounds on 2-minute intervals according to the dose schedules in Table 10. […] Gait and von Frey analyses were conducted at time points of 2 h, 4 h, 6 h, 8 h, and 24 h post-carrageenan injection; ankle caliper measurements were taken immediately following gait assessment. […]
Gait Analysis. […] Gait was scored visually as follows (descriptions refer to diseased leg): • 0=Normal, approximately equal ink staining to normal paw. • 1=Slight limp/pain. […]
Testing began with three applications of the 4.31 hair. […] Responses were recorded as either a 0 (no response) or a 1 (response). […]
Testing was done on hind (heel) portions of the hind paw. Testers monitored the animals for hyper-responding or freezing, in which case animals were left alone until calm.

## COc1ccc2cc([C@H](C)C(=O)O)ccc2c1 [Naproxen (oral), Naproxen]
  Paw Weight Difference (R − L): ‡0.410 g
Listed as oral Naproxen
  Paw Weight Difference (R − L): significantly reduced

From patent US12274683B2 (Bayer HealthCare LLC, priority 2019, dated 2025)
